Inhibition data for seven compounds are collected here from ChEMBL document CHEMBL4627386, “Bromo-spiroisoxazoline Alkaloids, Including an Isoserine Peptide, from the Caribbean Marine Sponge Aplysina lacunosa” (J Nat Prod, 2020).

For this assay, the target named is Chymotrypsinogen A (Bos taurus) (UniProt P00766). In words: Inhibition of bovine alpha-Chymotrypsin up to 25 ug/ml using Ala-Ala-Phe-p-nitroanilide as substrate preincubated for 15 mins followed by substrate addition and measured after 1 hr by colorimetric method.

The source made the active and inactive calls. The calls are words filed in the database; no cut-off is given here.

Regarding `COC1=C(Br)[C@H](O)[C@@]2(C=C1Br)CC(C(=O)NCCCOc1c(Br)cc(C/C(=N\O)C(=O)NCCc3c[nH]cn3)cc1Br)=NO2`, the inhibition entry is “inactive”.

Consider `COC(=O)C1=NO[C@]2(C=C(Br)C(OC)=C(Br)[C@@H]2O)C1`, for which the inhibition entry was “inactive”.

As to `COC1=C(Br)[C@H](O)[C@@]2(C=C1Br)CC(C(=O)NCCc1c[nH]cn1)=NO2`, the inhibition result was “inactive”.

Consider `COC(=O)CNC(=O)C1=NO[C@]2(C=C(Br)C(OC)=C(Br)[C@@H]2O)C1`, for which the inhibition result was “inactive”.

Regarding `COC(=O)C(O)CNC(=O)C1=NO[C@]2(C=C(Br)C(OC)=C(Br)[C@@H]2O)C1` (some centres not stated), the inhibition result was “inactive”.

As to `COC1=C(Br)[C@@H](O)[C@]2(C=C1Br)CC(C(=O)NCCCc1cnc(N)[nH]1)=NO2`, the inhibition entry was “inactive”.

With `COc1c(Br)cc(C/C(=N\O)C(=O)NCCc2c[nH]cn2)c(O)c1Br`, the inhibition result was “inactive”.
